According to PubChem BioAssay AID1205 (EPA DSSTox, 2008):
Active and inactive are the calls of the source.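 Rule for the calls: active = tumour findings in long-term animal cancer tests in more than one sex, species or organ; inactive = no tumour finding and more than one negative test.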

experiment: DSSTox (CPDBAS) Carcinogenic Potency Database Summary MultiCellCall Results; conditions: animal carcinogenicity bioassays, multi-cell call summary
Outline: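 Summary call drawn from chronic long-term cancer bioassays in rats, mice, hamsters, dogs and nonhuman primates, using the most positive result per sex-species. Score: multispecies=50, multisex=30, multisite=20, summed for combinations.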

Row | Compound | outcome
1 | [O-][Cl+]O | inactive; multisex inactive; multispecies inactive
2 | COc1ccc(CCN2CCC(Nc3nc4ccccc4n3Cc3ccc(F)cc3)CC2)cc1 | inactive; multisex inactive; multispecies inactive
3 | Nc1cc([N+](=O)[O-])ccc1C(=O)O | inactive; multisex inactive; multispecies inactive
4 | O=C1C(O)N=C(c2ccccc2F)c2cc(Cl)ccc2N1CCO (configuration not stated) | inactive; multisex inactive
5 | CN1[C@@H]2CC(OC(=O)[C@@H](CO)c3ccccc3)C[C@H]1[C@@H]1O[C@@H]12 (some centres not stated) | inactive; multisex inactive; multispecies inactive
6 | P | inactive; multisex inactive
7 | CC=O | active; multisite active; multisex active; multispecies active
8 | O=Cc1ccco1 | active; multisex active; multispecies active
9 | C=C(C)C(=O)Nc1ccc(Cl)c(Cl)c1 | inactive; multisex inactive
10 | O=NN(c1ccccc1)c1ccccc1 | active; multisex active
11 | Nc1ccc(Cc2ccc(N)cc2)cc1 | active; multisite active; multisex active; multispecies active
12 | CC(=O)CN(N=O)C(N)=O | active; multisex active
13 | c1ccc2c(c1)Nc1ccccc1S2 | inactive; multisex inactive
14 | c1ccc(OCC2CO2)cc1 (configuration not stated) | active; multisex active
15 | c1ccccc1 | active; multisite active; multisex active; multispecies active
16 | O=C1O[C@H]([C@@H](O)CO)C(O)=C1O | inactive; multisex inactive; multispecies inactive
17 | Cc1ccc2ncccc2c1 | inactive; multisex inactive
18 | ClC(Cl)C(Cl)(Cl)Cl | active; multisex active
19 | Oc1cccc(O)c1 | inactive; multisex inactive; multispecies inactive
20 | CN(C)CCN(C)N=O | active; multisite active; multisex active
21 | Cc1cc(C)c(N=Nc2c(O)c(S(=O)(=O)O)cc3cc(S(=O)(=O)O)ccc23)cc1C | active; multisex active
22 | CCC(O)OC(O)CC (configuration not stated) | inactive; multisex inactive; multispecies inactive
23 | Cc1cc(Cl)ccc1OCC(=O)O | inactive; multisex inactive; multispecies inactive
24 | Cc1ccc(N=C=O)cc1N=C=O | active; multisite active; multisex active; multispecies active
25 | Nc1ccc(Nc2ccccc2)cc1 | inactive; multisex inactive; multispecies inactive
26 | c1ccc(NNc2ccccc2)cc1 | active; multisite active; multisex active; multispecies active

Row | Compound | outcome
27 | O=C(O)CCCc1ccc(N(CCCl)CCCl)cc1 | active; multisite active; multisex active; multispecies active
28 | COc1ccc(C(=O)/C(Br)=C\C(=O)O)cc1 | active; multisite active; multisex active
29 | Cc1cccc2ccccc12 | inactive; multisex inactive
30 | CC(=O)N(O)c1ccc2c(c1)Cc1ccccc1-2 | active; multisite active; multisex active; multispecies active
31 | C=COC(C)=O | active; multisite active; multisex active; multispecies active
32 | Cn1cc[nH]c1=S | active; multisex active
33 | CCCN(N)C=O | active; multisite active; multisex active
34 | O.O.O.O.O=C([O-])CC(O)(CC(=O)[O-])C(=O)[O-].[Fe+3] | inactive; multisex inactive
35 | COC(N)=O | active; multisex active
36 | C1CO1 | active; multisite active; multisex active; multispecies active
37 | Oc1ccc2ccccc2c1N=Nc1ccccc1 | active; multisex active
38 | OC[C@H]1O[C@@](CO)(O[C@H]2O[C@H](CO)[C@@H](O)[C@H](O)[C@H]2O)[C@@H](O)[C@@H]1O | inactive; multisex inactive
39 | CC(C)Oc1ccc(Nc2ccccc2)cc1 | inactive; multisex inactive
40 | C/C=C(/C)C(=O)O[C@H]1CCN2CC=C(COC(=O)[C@](O)([C@H](C)OC)C(C)(C)O)[C@H]12 | active; multisite active; multisex active
41 | NNC=O | active; multisex active
42 | CC[C@H](OC(C)=O)C(C[C@H](C)N(C)C)(c1ccccc1)c1ccccc1 | active; multisex active
43 | CCCCOC(=O)c1ccc(O)cc1 | inactive; multisex inactive
44 | ClC1C2(Cl)C3C4C5OC5C5C4C1(Cl)C(Cl)(C53)C2(Cl)Cl (configuration not stated) | inactive; multisex inactive; multispecies inactive
45 | C=COC(N)=O | active; multisite active; multisex active
46 | C=CC(O)c1ccc2c(c1)OCO2 (configuration not stated) | active; multisite active; multisex active; multispecies active
47 | CCOC(=O)N(C)N=O | active; multisite active
48 | C=CBr | active; multisite active; multisex active
49 | CN(C)c1ccc(C(=O)c2ccc(N(C)C)cc2)cc1 | active; multisite active; multisex active; multispecies active
50 | N | inactive; multisex inactive
51 | CC(C)C=O | inactive; multisex inactive; multispecies inactive
52 | CC(=O)Nc1nc(-c2ccc([N+](=O)[O-])o2)cs1 | active; multisite active; multisex active; multispecies active

Row | Compound | outcome
53 | CNCc1ccc(CSCCNC(=NCC(O)c2ccc(O)cc2)NS(C)(=O)=O)o1 (configuration not stated) | active; multisex active
54 | ClCC1CO1 (configuration not stated) | active; multisex active
55 | c1ccc2sc(SSc3nc4ccccc4s3)nc2c1 | inactive; multisex inactive
56 | CCN(CC)c1cc2oc3cc(=[N+](CC)CC)c(C)cc-3c(-c3ccc(S(=O)(=O)O)cc3S(=O)(=O)[O-])c2cc1C | inactive; multisex inactive
57 | O=C1CCCO1 | inactive; multisex inactive; multispecies inactive
58 | CCCC/C=N/N(C)C=O | active; multisite active; multisex active
59 | O=S(=O)([O-])[O-].[O]=[V+2] | inactive; multisex inactive; multispecies inactive
60 | CCC1(c2ccccc2)C(=O)N=C(O)NC1=O (configuration not stated) | active; multisex active; multispecies active
61 | CC(N)=O | active; multisite active; multisex active; multispecies active
62 | CN(C)C(=S)[S-].CN(C)C(=S)[S-].[Cu+2] | inactive; multisex inactive
63 | NNCCc1ccccc1 | active; multisite active
64 | c1ccc2ccccc2c1 | active; multisite active; multisex active; multispecies active
65 | Cc1ccc(N)cc1 | active; multisex active
66 | Cc1c([N+](=O)[O-])c(C)c([N+](=O)[O-])c(C(C)(C)C)c1[N+](=O)[O-] | active; multisite active; multisex active
67 | CC1CC(C)(C)CC(OOC(C)(C)C)(OOC(C)(C)C)C1 (configuration not stated) | inactive; multisex inactive
68 | ClCC(Cl)CCl | active; multisite active; multisex active; multispecies active
69 | COc1cc(CNC(=O)CCCC/C=C/C(C)C)ccc1O | active; multisex active
70 | O=C/C(Cl)=C(/Cl)C(=O)O | inactive; multisex inactive
71 | C1CNCCN1 | inactive; multisex inactive
72 | CN1C(C(=O)Nc2ccccn2)=C(O)c2sc(Cl)cc2S1(=O)=O | inactive; multisex inactive
73 | c1ccc2c(c1)Oc1ccccc1O2 | inactive; multisex inactive; multispecies inactive
74 | O=NN1CCCN(N=O)CC1 | active; multisite active
75 | Cc1cc2c(nc1N)[nH]c1ccccc12 | active; multisite active; multisex active; multispecies active
76 | O=S(O)S(=O)(=O)O | inactive; multisex inactive
77 | O=NN1CC(=O)NC1=O | active; multisite active; multisex active
